Results taken from ChEMBL document CHEMBL3046663, “Assessing the effects of three potential chemical repellents to prevent bird damage to corn seeds and seedlings” (Pest Manag Sci, 2013).
Calls of active or inactive are those of the source. The rule behind the calls is not given here.

Experiments:
[1] = system: Zea mays; assay: Phytotoxicity against Zea mays (maize) seeds assessed as germination rate at 10 degC after 7 days by standard vigour method; assay type: organism-based; conditions: in vivo, 168 h
[2] = system: Columba livia; assay: Bird repellent activity against Columba livia f. domestica fed with compound treated maize seeds assessed as feeding deterrence activity at 1 ml/kg by aviary food choice trials; assay type: functional, organism-based
[3] = system: Zea mays; assay: Phytotoxicity against Zea mays (maize) seeds assessed as germination rate at 25 degC after 5-6 days by standard vigour method; assay type: organism-based; conditions: in vivo
[4] = system: Columba livia; assay: Bird repellent activity against Columba livia f. domestica assessed as decrease in damage of maize seedlings grown from compound-treated seeds at 0.085 ml/kg measured in the field at 2 to 16 days after germination during field trials; assay type: functional, organism-based
[5] = system: Columba livia; assay: Bird repellent activity against Columba livia f. domestica assessed as decrease in damage of maize seedlings grown from compound-treated seeds at 0.085 ml/kg measured after 3 days exposure during aviary trials; assay type: functional, organism-based
[6] = system: Columba livia; assay: Bird repellent activity against Columba livia f. domestica fed with compound treated maize seeds assessed as feeding deterrence activity at 0.085 ml/kg measured for 4 days by aviary food choice trials; assay type: functional, organism-based
[7] = system: Columba livia; assay: Bird repellent activity against Columba livia f. domestica fed with compound treated maize seeds assessed as feeding deterrence activity at 1.4 ml/kg measured for 4 days by aviary food choice trials; assay type: functional, organism-based
[8] = system: Columba livia; assay: Bird repellent activity against Columba livia f. domestica assessed as decrease in damage of maize seedlings grown from compound-treated seeds at 1.4 ml/kg measured after 3 days exposure during aviary trials; assay type: functional, organism-based
[9] = system: Columba livia; assay: Bird repellent activity against Columba livia f. domestica assessed as decrease in damage of maize seedlings grown from compound-treated seeds at 1.4 ml/kg measured in the field at 2 to 16 days after germination during field trials; assay type: functional, organism-based

| Structure (SMILES) | Activity [1] | Activity [2] | Activity [3] | inhibition [4] | inhibition [5] | Activity [6] | Activity [7] | inhibition [8] | inhibition [9] |
| --- | --- | --- | --- | --- | --- | --- | --- | --- | --- |
| O=C1c2ccccc2C(=O)c2ccccc21 [ANTHRAQUINONE] | Non-toxic | inactive | Non-toxic | – | – | – | – | – | – |
| COC(=O)c1ccccc1N [METHYL ANTHRANILATE] | Non-toxic | – | Non-toxic | inactive | inactive | Active | – | – | – |
| CC(C)=C1CC[C@@H](C)CC1=O [PULEGONE] | Non-toxic | – | Non-toxic | – | – | – | Active | inactive | inactive |
